Data on 24 molecules can be found in US20210047304A1, “Bromodomain Inhibitors” (AbbVie Inc., priority 2016, published 2021).

This assay has as its target BRD4 (BDI_K57-E168) (Homo sapiens, UniProt O60885). Kind of assay: TR-FRET bromodomain binding assay, BRD4 BDI. A general note: TR-FRET usually uses a lanthanide donor and a delayed reading to cut background.

One may read the Ki as the equilibrium dissociation constant of an inhibitor or competing ligand from its target. In turn, `Cc1cc(F)cc(C)c1Oc1ccc(C(C)(C)O)cc1-c1cn(C)c(=O)cc1O[C@H]1CC[C@H](N2C(=O)C(C)(C)N(C)C2C)CC1` (relative stereo) [Example 134, 5-[2-(4-fluoro-2,6-dimethylphenoxy)-5-(2-hydroxypropan-2-yl)phenyl]-1-methyl-4-{[trans-4-(2,3,4,4-tetramethyl-5-oxoimidazolidin-1-yl)cyclohexyl]oxy}pyridin-2(1H)-one] displayed a Ki of 1670 nM. This counts as single-digit micromolar.

`Cc1cc(F)cc(C)c1Oc1ccc(C(C)(C)O)cc1-c1cn(C)c(=O)cc1O[C@H]1CC[C@@H](C(=O)N2CCCC2)CC1` [Example 77, 5-[2-(4-fluoro-2,6-dimethylphenoxy)-5-(2-hydroxypropan-2-yl)phenyl]-1-methyl-4-{[cis-4-(pyrrolidine-1-carbonyl)cyclohexyl]oxy}pyridin-2(1H)-one] yielded a Ki greater than 13000 nM.

As to `CC(=O)C(=O)N[C@H]1CC[C@H](Oc2cc(=O)n(C)cc2-c2cc(C(C)(C)O)ccc2Oc2c(C)cc(F)cc2C)CC1` [Example 56, N-[trans-4-({5-[2-(4-fluoro-2,6-dimethylphenoxy)-5-(2-hydroxypropan-2-yl)phenyl]-1-methyl-2-oxo-1,2-dihydropyridin-4-yl}oxy)cyclohexyl]-2-oxopropanamide], the inhibition constant Ki came to 2430 nM.

`Cc1cc(F)cc(C)c1Oc1ccc(C(C)(C)O)cc1-c1cn(C)c(=O)cc1O[C@H]1CC[C@H](N2C(=O)N[C@@H](C)C2=O)CC1` [Example 124, (5S)-3-[trans-4-({5-[2-(4-fluoro-2,6-dimethylphenoxy)-5-(2-hydroxypropan-2-yl)phenyl]-1-methyl-2-oxo-1,2-dihydropyridin-4-yl}oxy)cyclohexyl]-5-methylimidazolidine-2,4-dione]: the inhibition constant (Ki) is greater than 13000 nM.

`Cc1cc(F)cc(C)c1Oc1ccc(C(C)(C)O)cc1-c1cn(C)c(=O)cc1O[C@H]1CC[C@H](N2C(=O)N[C@H](C(C)C)C2=O)CC1` [Example 131, (5R)-3-[trans-4-({5-[2-(4-fluoro-2,6-dimethylphenoxy)-5-(2-hydroxypropan-2-yl)phenyl]-1-methyl-2-oxo-1,2-dihydropyridin-4-yl}oxy)cyclohexyl]-5-(propan-2-yl)imidazolidine-2,4-dione]: the affinity corresponds to a Ki of 6320 nM.

The molecule `CC(=O)N[C@H]1CC[C@H](Oc2cc(=O)n(C)cc2-c2cc(C(C)(C)O)cnc2Oc2c(C)cc(F)cc2C)CC1` [Example 1, N-(trans-4-{[2′-(4-fluoro-2,6-dimethylphenoxy)-5′-(2-hydroxypropan-2-yl)-1-methyl-6-oxo[1,6-dihydro[3,3′-bipyridine]]-4-yl]oxy}cyclohexyl)acetamide] had an inhibitory constant (Ki) of 1710 nM.

The molecule `Cc1cc(F)cc(C)c1Oc1ccc(C(C)(C)O)cc1-c1cn(C)c(=O)cc1O[C@H]1CC[C@H](N2CC(C)(C)CC2=O)CC1` [Example 120, 4-{[trans-4-(4,4-dimethyl-2-oxopyrrolidin-1-yl)cyclohexyl]oxy}-5-[2-(4-fluoro-2,6-dimethylphenoxy)-5-(2-hydroxypropan-2-yl)phenyl]-1-methylpyridin-2(1H)-one] yielded a Ki of 891 nM.

The molecule `COCC(C)(C)C(=O)N[C@H]1CC[C@H](Oc2cc(=O)n(C)cc2-c2cc(C(C)(C)O)ccc2Oc2c(C)cc(F)cc2C)CC1` [Example 71, N-[trans-4-({5-[2-(4-fluoro-2,6-dimethylphenoxy)-5-(2-hydroxypropan-2-yl)phenyl]-1-methyl-2-oxo-1,2-dihydropyridin-4-yl}oxy)cyclohexyl]-3-methoxy-2,2-dimethylpropanamide] had an inhibitory constant (Ki) of 5080 nM.

Take `Cc1cc(F)cc(C)c1Oc1ccc(C(C)(C)O)cc1-c1cn(C)c(=O)cc1O[C@H]1CC[C@H](N2C(=O)CN(C)C2=O)CC1` [Example 78, 3-[trans-4-({5-[2-(4-fluoro-2,6-dimethylphenoxy)-5-(2-hydroxypropan-2-yl)phenyl]-1-methyl-2-oxo-1,2-dihydropyridin-4-yl}oxy)cyclohexyl]-1-methylimidazolidine-2,4-dione]: the Ki was 4650 nM.

As to `Cc1cc(F)cc(C)c1Oc1ccc(C(C)(C)O)cc1-c1cn(C)c(=O)cc1O[C@H]1CC[C@H](NC(=O)C(F)(F)F)CC1` [Example 117, 2,2,2-trifluoro-N-[trans-4-({5-[2-(4-fluoro-2,6-dimethylphenoxy)-5-(2-hydroxypropan-2-yl)phenyl]-1-methyl-2-oxo-1,2-dihydropyridin-4-yl}oxy)cyclohexyl]acetamide], the inhibitory constant (Ki) came out at 3570 nM.

The molecule `COCC(=O)N[C@H]1CC[C@H](Oc2cc(=O)n(C)cc2-c2cc(C(C)(C)O)ccc2Oc2c(C)cc(F)cc2C)CC1` [Example 53, N-[trans-4-({5-[2-(4-fluoro-2,6-dimethylphenoxy)-5-(2-hydroxypropan-2-yl)phenyl]-1-methyl-2-oxo-1,2-dihydropyridin-4-yl}oxy)cyclohexyl]-2-methoxyacetamide] displayed a Ki of 1440 nM.

`Cc1cc(F)cc(C)c1Oc1ccc(C(C)(C)O)cc1-c1cn(C)c(=O)cc1O[C@H]1CC[C@H](N2NC(=O)CC2=O)CC1` [Example 121, 1-[trans-4-({5-[2-(4-fluoro-2,6-dimethylphenoxy)-5-(2-hydroxypropan-2-yl)phenyl]-1-methyl-2-oxo-1,2-dihydropyridin-4-yl}oxy)cyclohexyl]pyrazolidine-3,5-dione] displayed a Ki greater than 13000 nM.

Turning to `Cc1cc(F)cc(C)c1Oc1ccc(C(C)(C)O)cc1-c1cn(C)c(=O)cc1O[C@H]1CC[C@H](NC(=O)CCC(C)(C)O)CC1` [Example 119, N-[trans-4-({5-[2-(4-fluoro-2,6-dimethylphenoxy)-5-(2-hydroxypropan-2-yl)phenyl]-1-methyl-2-oxo-1,2-dihydropyridin-4-yl}oxy)cyclohexyl]-4-hydroxy-4-methylpentanamide], the Ki turned out to be 2810 nM. This lies in the single-digit micromolar range.

`Cc1cc(F)cc(C)c1Oc1ccc(C(C)(C)O)cc1-c1cn(C)c(=O)cc1O[C@H]1CC[C@H](n2cccnc2=O)CC1` [Example 143, 1-[trans-4-({5-[2-(4-fluoro-2,6-dimethylphenoxy)-5-(2-hydroxypropan-2-yl)phenyl]-1-methyl-2-oxo-1,2-dihydropyridin-4-yl}oxy)cyclohexyl]pyrimidin-2(1H)-one] had a Ki of 5240 nM.

For `CCOC(=O)CC(=O)N[C@H]1CC[C@H](Oc2cc(=O)n(C)cc2-c2cc(C(C)(C)O)ccc2Oc2c(C)cc(F)cc2C)CC1` [Example 55, ethyl 3-{[trans-4-({5-[2-(4-fluoro-2,6-dimethylphenoxy)-5-(2-hydroxypropan-2-yl)phenyl]-1-methyl-2-oxo-1,2-dihydropyridin-4-yl}oxy)cyclohexyl]amino}-3-oxopropanoate], the inhibitory constant (Ki) is 1870 nM.

On to `Cc1cc(F)cc(C)c1Oc1ccc(C(C)(C)O)cc1-c1cn(C)c(=O)cc1O[C@H]1C[C@@H](CNC(=O)OC(C)(C)C)C1` [Example 8, tert-butyl {[cis-3-({5-[2-(4-fluoro-2,6-dimethylphenoxy)-5-(2-hydroxypropan-2-yl)phenyl]-1-methyl-2-oxo-1,2-dihydropyridin-4-yl}oxy)cyclobutyl]methyl}carbamate], for which the Ki is 2700 nM.

Regarding `CC(=O)N[C@H]1CC[C@H](Nc2cc(=O)n(C)cc2-c2cc(C(C)(C)O)ccc2Oc2c(C)cc(F)cc2C)CC1` [Example 19, N-[trans-4-({5-[2-(4-fluoro-2,6-dimethylphenoxy)-5-(2-hydroxypropan-2-yl)phenyl]-1-methyl-2-oxo-1,2-dihydropyridin-4-yl}amino)cyclohexyl]acetamide], the Ki stood at 2890 nM.

For `CNC(=O)[C@H]1CC[C@H](Oc2cc(=O)n(C)cc2-c2cc(C(C)(C)O)ccc2Oc2c(C)cc(F)cc2C)CC1` [Example 101, trans-4-({5-[2-(4-fluoro-2,6-dimethylphenoxy)-5-(2-hydroxypropan-2-yl)phenyl]-1-methyl-2-oxo-1,2-dihydropyridin-4-yl}oxy)-N-methylcyclohexane-1-carboxamide], the affinity, expressed as Ki, was 3530 nM. This Ki and that of the molecule before are within 1.5-fold of each other.

`Cc1cc(F)cc(C)c1Oc1ccc(C(C)(C)O)cc1-c1cn(C)c(=O)cc1O[C@H]1CC[C@H](N2C(=O)CCC(C)(C)C2=O)CC1` [Example 89, 1-[trans-4-({5-[2-(4-fluoro-2,6-dimethylphenoxy)-5-(2-hydroxypropan-2-yl)phenyl]-1-methyl-2-oxo-1,2-dihydropyridin-4-yl}oxy)cyclohexyl]-3,3-dimethylpiperidine-2,6-dione] displayed a Ki greater than 13000 nM.

Consider `Cc1cc(F)cc(C)c1Oc1ccc(C(C)(C)O)cc1-c1cn(C)c(=O)cc1O[C@H]1CC[C@H](N2NCCC2=O)CC1` [Example 109, 5-[2-(4-fluoro-2,6-dimethylphenoxy)-5-(2-hydroxypropan-2-yl)phenyl]-1-methyl-4-{[trans-4-(5-oxopyrazolidin-1-yl)cyclohexyl]oxy}pyridin-2(1H)-one], for which the inhibition constant (Ki) was greater than 13000 nM.

In turn, `COCCN(C(=O)C1(C)CC1)[C@H]1CC[C@H](Oc2cc(=O)n(C)cc2-c2cc(C(C)(C)O)ccc2Oc2c(C)cc(F)cc2C)CC1` [Example 64, N-[trans-4-({5-[2-(4-fluoro-2,6-dimethylphenoxy)-5-(2-hydroxypropan-2-yl)phenyl]-1-methyl-2-oxo-1,2-dihydropyridin-4-yl}oxy)cyclohexyl]-N-(2-methoxyethyl)-1-methylcyclopropane-1-carboxamide] displayed a Ki of 1950 nM.

Take `Cc1cc(F)cc(C)c1Oc1ccc(C(C)(C)O)cc1-c1cn(C)c(=O)cc1O[C@H]1CC[C@H](C#N)CC1` [Example 69, trans-4-({5-[2-(4-fluoro-2,6-dimethylphenoxy)-5-(2-hydroxypropan-2-yl)phenyl]-1-methyl-2-oxo-1,2-dihydropyridin-4-yl}oxy)cyclohexane-1-carbonitrile]: the affinity corresponds to a Ki of 7250 nM.

`Cc1cc(F)cc(C)c1Oc1ccc(C(C)(C)O)cc1-c1cn(C)c(=O)cc1O[C@H]1CC[C@H](NC(=O)N2CCNC2=O)CC1` [Example 123, N-[trans-4-({5-[2-(4-fluoro-2,6-dimethylphenoxy)-5-(2-hydroxypropan-2-yl)phenyl]-1-methyl-2-oxo-1,2-dihydropyridin-4-yl}oxy)cyclohexyl]-2-oxoimidazolidine-1-carboxamide] showed a Ki greater than 13000 nM.

In the case of `Cc1cc(F)cc(C)c1Oc1ccc(C(C)(C)O)cc1-c1cn(C)c(=O)cc1O[C@H]1CC[C@H](N2CCCNC2=O)CC1` [Example 31, 1-[trans-4-({5-[2-(4-fluoro-2,6-dimethylphenoxy)-5-(2-hydroxypropan-2-yl)phenyl]-1-methyl-2-oxo-1,2-dihydropyridin-4-yl}oxy)cyclohexyl]tetrahydropyrimidin-2(1H)-one], the Ki was 2410 nM.
